Measurements taken from PubChem BioAssay (NCI).
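Exposure lasted 48 hours, with cells grown in 96-well plates and compounds tested at five concentrations. TGI: concentration producing complete growth inhibition.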

Key:
Experiment in all cases: DTP human tumour cell line panel, 48 h
LOX IMVI melanoma = tested on: LOX IMVI melanoma
MCF7 breast = tested on: MCF7 breast
U251 CNS = tested on: U251 CNS
HCT-116 colon = tested on: HCT-116 colon
HS 578T breast = tested on: HS 578T breast
OVCAR-3 ovarian = tested on: OVCAR-3 ovarian
NCI-H460 lung = tested on: NCI-H460 lung
HCC-2998 colon = tested on: HCC-2998 colon
SF-268 CNS = tested on: SF-268 CNS
A498 renal = tested on: A498 renal
SN12C renal = tested on: SN12C renal
MOLT-4 leukemia = tested on: MOLT-4 leukemia
CCRF-CEM leukemia = tested on: CCRF-CEM leukemia
DU-145 prostate = tested on: DU-145 prostate
NCI/ADR-RES ovarian = tested on: NCI/ADR-RES ovarian
NCI-H226 lung = tested on: NCI-H226 lung
HT29 colon = tested on: HT29 colon
MDA-MB-435 = tested on: MDA-MB-435
SK-OV-3 ovarian = tested on: SK-OV-3 ovarian
OVCAR-5 ovarian = tested on: OVCAR-5 ovarian
SK-MEL-2 melanoma = tested on: SK-MEL-2 melanoma
A549 NSCLC = tested on: A549 NSCLC
HL-60(TB) leukemia = tested on: HL-60(TB) leukemia
M14 melanoma = tested on: M14 melanoma
SK-MEL-5 melanoma = tested on: SK-MEL-5 melanoma
TK-10 renal = tested on: TK-10 renal
IGROV1 ovarian = tested on: IGROV1 ovarian
BT-549 breast = tested on: BT-549 breast
OVCAR-8 ovarian = tested on: OVCAR-8 ovarian
OVCAR-4 ovarian = tested on: OVCAR-4 ovarian
MALME-3M melanoma = tested on: MALME-3M melanoma
SK-MEL-28 melanoma = tested on: SK-MEL-28 melanoma
UACC-62 melanoma = tested on: UACC-62 melanoma
NCI-H23 lung = tested on: NCI-H23 lung
ACHN renal = tested on: ACHN renal
SF-295 CNS = tested on: SF-295 CNS
HCT-15 colon = tested on: HCT-15 colon
SF-539 CNS = tested on: SF-539 CNS
UACC-257 melanoma = tested on: UACC-257 melanoma
MDA-N = tested on: MDA-N
SR leukemia = tested on: SR leukemia
NCI-H522 lung = tested on: NCI-H522 lung
HOP-62 NSCLC = tested on: HOP-62 NSCLC
RXF 393 renal = tested on: RXF 393 renal
786-0 renal = tested on: 786-0 renal
HOP-92 NSCLC = tested on: HOP-92 NSCLC
PC-3 prostate = tested on: PC-3 prostate
KM12 colon = tested on: KM12 colon
UO-31 renal = tested on: UO-31 renal
CAKI-1 renal = tested on: CAKI-1 renal
COLO 205 colon = tested on: COLO 205 colon
SNB-75 CNS = tested on: SNB-75 CNS
MDA-MB-231 breast = tested on: MDA-MB-231 breast
EKVX NSCLC = tested on: EKVX NSCLC
SW-620 colon = tested on: SW-620 colon
SNB-19 CNS = tested on: SNB-19 CNS
K-562 leukemia = tested on: K-562 leukemia
RPMI-8226 leukemia = tested on: RPMI-8226 leukemia

Cc1cc(O)c(C=NC(=S)c2ccncc2)c(=O)o1
TGI (LOX IMVI melanoma): > 100 µM
TGI (MCF7 breast): > 100 µM
TGI (U251 CNS): > 100 µM
TGI (HCT-116 colon): > 100 µM
TGI (HS 578T breast): > 100 µM
TGI (OVCAR-3 ovarian): > 100 µM
TGI (NCI-H460 lung): > 100 µM
TGI (HCC-2998 colon): > 100 µM
TGI (SF-268 CNS): > 100 µM
TGI (A498 renal): > 100 µM
TGI (SN12C renal): > 100 µM
TGI (MOLT-4 leukemia): > 100 µM
TGI (CCRF-CEM leukemia): > 100 µM
TGI (DU-145 prostate): > 100 µM
TGI (NCI/ADR-RES ovarian): > 100 µM
TGI (NCI-H226 lung): > 100 µM
TGI (HT29 colon): > 100 µM
TGI (MDA-MB-435): > 100 µM
TGI (SK-OV-3 ovarian): > 100 µM
TGI (OVCAR-5 ovarian): > 100 µM
TGI (SK-MEL-2 melanoma): > 100 µM
TGI (A549 NSCLC): > 100 µM
TGI (HL-60(TB) leukemia): > 100 µM
TGI (M14 melanoma): > 100 µM
TGI (SK-MEL-5 melanoma): > 100 µM
TGI (TK-10 renal): > 100 µM
TGI (IGROV1 ovarian): > 100 µM
TGI (BT-549 breast): > 100 µM
TGI (OVCAR-8 ovarian): > 100 µM
TGI (OVCAR-4 ovarian): > 100 µM
TGI (MALME-3M melanoma): > 100 µM
TGI (SK-MEL-28 melanoma): > 100 µM
TGI (UACC-62 melanoma): > 100 µM
TGI (NCI-H23 lung): > 100 µM
TGI (ACHN renal): > 100 µM
TGI (SF-295 CNS): > 100 µM
TGI (HCT-15 colon): > 100 µM
TGI (SF-539 CNS): > 100 µM
TGI (UACC-257 melanoma): > 100 µM
TGI (MDA-N): > 100 µM
TGI (SR leukemia): > 100 µM
TGI (NCI-H522 lung): > 100 µM
TGI (HOP-62 NSCLC): > 100 µM
TGI (RXF 393 renal): > 100 µM
TGI (786-0 renal): > 100 µM
TGI (HOP-92 NSCLC): > 100 µM
TGI (PC-3 prostate): > 100 µM
TGI (KM12 colon): > 100 µM
TGI (UO-31 renal): > 100 µM
TGI (CAKI-1 renal): > 100 µM
TGI (COLO 205 colon): > 100 µM
TGI (SNB-75 CNS): > 100 µM
TGI (MDA-MB-231 breast): > 100 µM
TGI (EKVX NSCLC): > 100 µM
TGI (SW-620 colon): > 100 µM
TGI (SNB-19 CNS): > 100 µM

O=C(Cc1cc(=O)oc2cc(O)ccc12)N/N=C/c1ccc(N(CCCl)CCCl)cc1
TGI (LOX IMVI melanoma): 36.4 µM
TGI (MCF7 breast): 41.8 µM
TGI (U251 CNS): 34.1 µM
TGI (HCT-116 colon): 30.2 µM
TGI (HS 578T breast): 57.3 µM
TGI (OVCAR-3 ovarian): 33.1 µM
TGI (NCI-H460 lung): 29.4 µM
TGI (HCC-2998 colon): > 100 µM
TGI (SF-268 CNS): 30.4 µM
TGI (A498 renal): 41.2 µM
TGI (SN12C renal): 41.3 µM
TGI (MOLT-4 leukemia): 94.6 µM
TGI (CCRF-CEM leukemia): 74.7 µM
TGI (DU-145 prostate): 41 µM
TGI (NCI/ADR-RES ovarian): > 100 µM
TGI (NCI-H226 lung): 35 µM
TGI (HT29 colon): 45.1 µM
TGI (MDA-MB-435): 47.7 µM
TGI (OVCAR-5 ovarian): 55 µM
TGI (SK-MEL-2 melanoma): > 100 µM
TGI (A549 NSCLC): 32 µM
TGI (HL-60(TB) leukemia): 37.6 µM
TGI (M14 melanoma): 37.8 µM
TGI (SK-MEL-5 melanoma): 27.7 µM
TGI (IGROV1 ovarian): 41.9 µM
TGI (BT-549 breast): 30.8 µM
TGI (OVCAR-8 ovarian): 29.4 µM
TGI (OVCAR-4 ovarian): 87.3 µM
TGI (MALME-3M melanoma): 40.9 µM
TGI (SK-MEL-28 melanoma): 28.6 µM
TGI (NCI-H23 lung): 69.4 µM
TGI (ACHN renal): 32.7 µM
TGI (SF-295 CNS): 34.3 µM
TGI (HCT-15 colon): > 100 µM
TGI (SF-539 CNS): 35.6 µM
TGI (UACC-257 melanoma): 63.1 µM
TGI (MDA-N): 63 µM
TGI (SR leukemia): 40.5 µM
TGI (NCI-H522 lung): 45 µM
TGI (HOP-62 NSCLC): 41.4 µM
TGI (RXF 393 renal): 31 µM
TGI (786-0 renal): 37.3 µM
TGI (HOP-92 NSCLC): 43.8 µM
TGI (PC-3 prostate): 35.2 µM
TGI (KM12 colon): > 100 µM
TGI (UO-31 renal): 46.2 µM
TGI (CAKI-1 renal): 31.7 µM
TGI (K-562 leukemia): 82.1 µM
TGI (COLO 205 colon): 72 µM
TGI (SNB-75 CNS): 38.5 µM
TGI (RPMI-8226 leukemia): 43.6 µM
TGI (MDA-MB-231 breast): 33.3 µM
TGI (EKVX NSCLC): 44.1 µM
TGI (SW-620 colon): > 100 µM
TGI (SNB-19 CNS): 42.4 µM
